“Also recorded” adds a separate entry of the source.
How the values were obtained:
[1] = tested on: mouse adrenal chromaffin cells; assay: Perforated patch clamp, light-triggered action potentials; assay type: cell-based
Protocol: Action potentials in chromaffin cells were monitored using perforated patch clamp electrophysiology in current-clamp mode, using an EPC10 amplifier and Pulsemaster data acquisition software (HEKA electronics). A coverslip containing mouse chromaffin cells was transferred to a recording chamber and perfused with extracellular solution. Extracellular solution consists of 140 mM NaCl, 2.8 mM KCl, 10 mM HEPES, 1 mM MgCl2, 2 mM CaCl2, 10 mM glucose, pH adjusted to 7.3, and osmolarity adjusted to 290-300 mOsm. Intracellular solution consisted of 145 mM KCl, 10 mM NaCl, 1 mM MgCl2, and 10 mM HEPES, pH adjusted to 7.3 and osmolarity adjusted to 290-300 mOsm. Perforation solution was prepared by adding 4.5 μl of 125 mg/ml stock of amphoterecin B (Sigma) in DMSO to 1.8 mls of intracellular solution, and homogenizing for 540 s. Perforation was achieved within 3-10 min following gigaseal formation. Series resistances were in the range of 8-22 Mohm. Light stimulation in the blue spectrum originated from a xenon lamp source with an irradiance value of 0.480 mE s^−1 m^−2 through a 470/40 nm bandpass excitation filter. The duration of illumination varied and is indicated by bars on figures.
The behavior of excitable cells (cells capable of firing action potentials) treated with RubpyC17 was next investigated. Perforated patch clamp recording was performed on, mouse adrenal chromaffin cells pretreated with 450-900 nM RubpyC17 for 15-30 minutes before beginning electrophysiological recordings.

[2] = tested on: RCS rats; assay: Histology of the retina after injection; assay type: in vivo, rat; details: 3 days after injection, preliminary
Description: This finding was reproduced in 3 of 3 RCS rats injected with Rubpy-C17, and in 2 of 2 control (sham injection) RCS rats.

[3] = tested on: mouse chromaffin cells; assay: Carbon-fiber amperometry, light-triggered secretion; assay type: cell-based
Protocol: Carbon fiber electrodes were prepared using established methodology and coupled to an EPC10 amplifier. A +800 mV constant voltage was applied to the electrode relative to the Ag/AgCl bath electrode. The amperometry recordings were sampled at 4 kHz using Pulsemaster (HEKA). Extracellular composition consisted of 120 mM NaCl, 20 mM KCl, 10 mM HEPES, 1 mM MgCl2, 2 mM CaCl2, 10 mM glucose, pH adjusted to 7.2-7.4, and osmolarity adjusted to 290-300. Light stimulation in the blue spectrum originated from a xenon lamp source through a 470/40 nm bandpass excitation filter. The duration of illumination varied and is indicated by bars on figures.
Action potential firing triggers secretion of norepinephrine and epinephrine from adrenal chromaffin cells, which can be readily detected by the technique of carbon-fiber amperometry, thus serving as a surrogate to detect action potential firing. […] Out of 18 RubpyC17-loaded cells tested, 15 cells (83%) experienced increased secretion by at least 100-fold during light illumination. Unlike the changes in light-induced depolarization, light-induced changes in secretion appeared to be more transient One possible explanation for this is that at any moment in time, there are only a small number of release-competent vesicles—the so-called readily releasable pool of vesicles and maintained stimulation causes rapid depletion of the readily releasable pool of vesicles in the initial phase of stimulation.

[4] = tested on: HEK293T cells; assay: Voltage-clamp membrane current under light; assay type: cell-based, human; details: approximately −80 mV
Protocol: To examine whether light-activated RubpyC17 can directly interact and open or block endogenous ion channels, HEK293T cells were preincubated with RubpyC17, and patch-clamped in a voltage-clamp configuration. Voltage-clamp configuration allowed the cells to be clamped at a potential where most voltage-gated ion channels are closed (approximately −80 mV). […] The current-voltage relationship (see FIGS. 21C and 21D) as well as the steady-state voltage-dependent activation curves of RubpyC17-treated chromaffin cells in voltage-clamp mode before and during light illumination (see FIG. 21E).

[5] = tested on: leech ganglion neurons; assay: Leech ganglion neurons, light-induced action potential firing; assay type: cell-based, Hirudo verbana; details: ex vivo leech ganglia
Protocol: Adult leeches Hirudo verbana will be obtained from Niagara Medical Leeches, Inc. (Westbury, N.Y., USA). Groups (20-30) of animals will be kept in glass aquaria with artificial pond water (36 mg/L Instant Ocean salts; Aquarium Systems, Mentor Ohio), in a temperature-controlled room at 16° C. and a 12:12 h light:dark cycle. At the time of experiments, leeches will weigh 1-3 g. Before dissection, the leech will be anesthetized in ice-cold leech saline. Leech saline has the following composition (in mM per liter): NaCl—115, KCl—4, CaCl2—1.8, MgCl2—2, HEPES—10, D-Glucose—5 (Sigma-Aldrich, USA). Individual ganglia will be dissected from the mid-body segments M6-M12, and pinned down in Sylgard-filled dissection box. Medial dorsal longitudinal incision will be made and the blood will be flushed away. Connective tissue and the blood vessel overlaying the ganglion chain will be incised. Dissected ganglia will be transferred to a Petri dish, pinned down in paraffin with six stainless steel pins (dorsal side up). PVNs will be microinjected into the extracellular space of the ganglion with a glass micropipette. Intracellular recording will be performed by penetrating the Retzius neurons with sharp glass electrodes (20-30 MOhm) filled with 3M potassium acetate. […] Neuronal firing will be recorded before and after the injections.

[6] = aqueous solution; cited from earlier work

## CCCCCCCCCCCCCCCCCc1ccnc(-c2cc(C)ccn2)c1.F[P-](F)(F)(F)(F)F.F[P-](F)(F)(F)(F)F.[Ru+2].c1ccc(-c2ccccn2)nc1.c1ccc(-c2ccccn2)nc1 [RubpyC17, [Ru(bpy)2(bpy-C17)](PF6)2]
[1]; 900 nM RubpyC17 pretreatment, 5 mM ascorbate
  light effect on action potential firing: triggered action potentials or increased the rate of action potential firing
[1]; 2 μM for 1.5 min, ascorbate changed for ferricyanide
  action potential firing rate of a single cell: light-induced increase and then light-induced decrease
[1]; chromaffin cells
  reversal of firing effect after light illumination terminated: slow, gradual reversal; also recorded: slowly reversed
  shape of action potential waveforms under light: no change in the shape of action potential waveforms
[1]; ferricyanide 100 μM
  light effect on rate of action potential firing: decreased the rate of action potential firing
[1]; ferricyanide from 100 to 200 μM
  effect of increasing ferricyanide on action potential firing: further suppressed action potential firing
[2]
  retinal histology / pathology: no evidence of retinal cell death or white blood cell infiltrates; also recorded: absence of obvious signs of deleterious effects
[3]; 2 μM RubpyC17, 488 nm
  amperometric current spikes (vesicular secretion) under light: exhibited numerous amperometric current spikes
[3]; 15 of 18 RubpyC17-loaded cells
  cells with increased secretion during light illumination: 83%
[3]; responding cells
  increase of secretion during light illumination: at least 100 fold
[4]
  light-induced changes in membrane current: did not exhibit light-induced changes in membrane current
[5]
  light-induced action potential firing: respond to illumination by firing action potentials; also recorded: light-induced increases in action potential firing
[6]
  electron transfer rate ket to oxidant ferricyanide: ~6.5e+09 M⁻¹ s⁻¹

Source: patent publication US10232043B2, “Photoactivated molecules for light-induced modulation of the activity of electrically excitable cells and methods of using the same” (UNIVERSITY OF SOUTHERN CALIFORNIA, priority 2015, dated 2019)
